This is an account of results in US20240239792A1, “MODULATORS OF BCL-2 OR BCL-2/BCL-XL AND USES THEREOF” (APPICINE THERAPEUTICS (HK) LIMITED, priority 2021, published 2024).

The target in one test is T1, BCL-2 (Homo sapiens, UniProt P10415).
T1 construct: purchased Cisbio 63ADK000CB01PEG
Briefly: HTRF BCL-2/BAK assay (Cisbio). Type of test: binding. To be noted: recombinant human Tag1-BCL-2 2 nM, Tag2-BAK 10 nM. Here is the method: (§1) Then the pre-mixed anti-Tag1-Eu^3+ and anti-tag2-XL665 were added to the plate and further incubated at room temperature for another 2 hours. The signals ([…]) were read on Envision 2104 instrument. The IC50 for each compound was derived from fitting the signal of 665/615 nM to the increasing compound concentration.
(§2) Using the above assays, the following compounds were tested.

Another test has as its system DOHH2 cells. Briefly: CellTiter-Glo cell proliferation assay, DOHH2 cells. Type of test: cell-based. To be noted: Homo sapiens, DOHH-2, 72 hours. Summed up: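 DOHH2 cells seeded in DMEM + 10% FBS, exposed to serially diluted compound for 72 h at 37 °C, 5% CO2. Viability read by CellTiter-Glo luminescence; GI50 calculated.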
Another test has as its target T2, BCL-XL (Homo sapiens, UniProt Q07817).
T2 construct: purchased Cisbio 63ADK000CB04PEG
In words: HTRF BCL-XL/BAK assay (Cisbio). Type of test: binding. To be noted: recombinant human Tag1-BCL-XL 2 nM, Tag2-BAK 5 nM. How it is done: as §1, §2

T1 sequence (P10415 whole entry): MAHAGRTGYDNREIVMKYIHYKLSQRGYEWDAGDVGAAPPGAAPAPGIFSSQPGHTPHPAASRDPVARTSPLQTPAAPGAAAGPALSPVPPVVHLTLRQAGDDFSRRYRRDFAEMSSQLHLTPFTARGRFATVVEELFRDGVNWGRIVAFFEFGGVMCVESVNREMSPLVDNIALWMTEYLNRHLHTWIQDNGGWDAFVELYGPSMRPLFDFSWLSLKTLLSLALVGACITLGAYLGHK
T2 sequence (Q07817 whole entry): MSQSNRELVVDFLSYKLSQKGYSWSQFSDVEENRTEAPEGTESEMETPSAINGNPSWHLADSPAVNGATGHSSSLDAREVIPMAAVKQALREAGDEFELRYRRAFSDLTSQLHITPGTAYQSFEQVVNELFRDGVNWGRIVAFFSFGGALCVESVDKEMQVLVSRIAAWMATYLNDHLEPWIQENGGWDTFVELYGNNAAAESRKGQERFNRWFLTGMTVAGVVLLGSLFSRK

Consider `O=C(NS(=O)(=O)c1ccc(NCC2CC3(CCN(CC4CC4)CC3)C2)c([N+](=O)[O-])c1)c1ccc(N2CCN([C@@H]3CCCCc4c(Cl)cccc43)CC2)cc1Oc1cnc2[nH]ccc2c1` [Compound 129, (R)-2-((1H-pyrrolo[2,3-b]pyridin-5-yl)oxy)-4-(4-(1-chloro-6,7,8,9-tetrahydro-5H-benzo[7]annulen-5-yl)piperazin-1-yl)-N-((4-(((7-(cyclopropylmethyl)-7-azaspiro[3.5]nonan-2-yl)methyl)amino)-3-nitrophenyl)sulfonyl)benzamide], for which the IC50 on BCL-2 and on BCL-XL was < 20 nM in each case. Further, the GI50 in the test on DOHH2 cells is < 50 nM.

Turning to `O=C(NS(=O)(=O)c1ccc(NCCN2CCN(C3COC3)CC2)c([N+](=O)[O-])c1)c1ccc(N2CCN([C@@H]3CCCCc4c(Cl)cccc43)CC2)cc1Oc1cnc2[nH]ccc2c1` [Compound 84, (R)-2-((1H-pyrrolo[2,3-b]pyridin-5-yl)oxy)-4-(4-(1-chloro-6,7,8,9-tetrahydro-5H-benzo[7]annulen-5-yl)piperazin-1-yl)-N-((3-nitro-4-((2-(4-(oxetan-3-yl)piperazin-1-yl)ethyl)amino)phenyl)sulfonyl)benzamide], the results for the IC50 at BCL-2 and at BCL-XL were < 20 nM and 20 to 200 nM, respectively. The GI50 in the test on DOHH2 cells is < 50 nM.

`O=C(NS(=O)(=O)c1ccc(NCC2(O)CCN(C3COC3)CC2)c([N+](=O)[O-])c1)c1ccc(N2CCN([C@@H]3CCCCc4c(Cl)cccc43)CC2)cc1Oc1cnc2[nH]ccc2c1` [Compound 85, (R)-2-((1H-pyrrolo[2,3-b]pyridin-5-yl)oxy)-4-(4-(1-chloro-6,7,8,9-tetrahydro-5H-benzo[7]annulen-5-yl)piperazin-1-yl)-N-((4-(((4-hydroxy-1-(oxetan-3-yl)piperidin-4-yl)methyl)amino)-3-nitrophenyl)sulfonyl)benzamide]: the IC50 at BCL-2 and on BCL-XL was < 20 nM throughout. Besides, the GI50 in the test with DOHH2 cells is < 50 nM.

In the case of `O=C(NS(=O)(=O)c1ccc(NCC2CC3(CCN(CCO)CC3)C2)c([N+](=O)[O-])c1)c1ccc(N2CCN([C@@H]3CCCCc4c(Cl)cccc43)CC2)cc1Oc1cnc2[nH]ccc2c1` [Compound 121, (R)-2-((1H-pyrrolo[2,3-b]pyridin-5-yl)oxy)-4-(4-(1-chloro-6,7,8,9-tetrahydro-5H-benzo[7]annulen-5-yl)piperazin-1-yl)-N-((4-(((7-(2-hydroxyethyl)-7-azaspiro[3.5]nonan-2-yl)methyl)amino)-3-nitrophenyl)sulfonyl)benzamide], the IC50 at BCL-2 and on BCL-XL was < 20 nM throughout. Besides, the GI50 in the test on DOHH2 cells was < 50 nM.

As for `O=C(NS(=O)(=O)c1ccc(NC[C@@H]2CO[C@@H]3OCC[C@H]23)c([N+](=O)[O-])c1)c1ccc(N2CCN([C@@H]3CCCCc4c(Br)cc(F)cc43)CC2)cc1Oc1cnc2[nH]ccc2c1` (relative stereo) [Compound 81, 2-((1H-pyrrolo[2,3-b]pyridin-5-yl)oxy)-4-(4-((R)-1-bromo-3-fluoro-6,7,8,9-tetrahydro-5H-benzo[7]annulen-5-yl)piperazin-1-yl)-N-((4-((((3R,3aR,6aS)-hexahydrofuro[2,3-b]furan-3-yl)methyl)amino)-3-nitrophenyl)sulfonyl)benzamide], the IC50 on BCL-2 lay within 20 to 200 nM; at BCL-XL, 200 to 2000 nM. Besides, in the test with DOHH2 cells, the GI50 fell in the range of 500 to 5000 nM.

`O=C(NS(=O)(=O)c1ccc(NCC2CCOCC2)c([N+](=O)[O-])c1)c1ccc(N2CCN([C@@H]3CCCCc4c(Br)cc(F)cc43)CC2)cc1Oc1cnc2[nH]ccc2c1` [Compound 78, (R)-2-((1H-pyrrolo[2,3-b]pyridin-5-yl)oxy)-4-(4-(1-bromo-3-fluoro-6,7,8,9-tetrahydro-5H-benzo[7]annulen-5-yl)piperazin-1-yl)-N-((3-nitro-4-(((tetrahydro-2H-pyran-4-yl)methyl)amino)phenyl)sulfonyl)benzamide]: the IC50 on BCL-2 was < 20 nM; at BCL-XL it was 200 to 2000 nM. The molecule also returned a GI50 with DOHH2 cells of 50 to 500 nM.

`O=C(NS(=O)(=O)c1ccc(NCC2CCOCC2)c([N+](=O)[O-])c1)c1ccc(N2CCN(C3CCCCc4c(C5=CCCC5)cccc43)CC2)cc1Oc1cnc2[nH]ccc2c1` (stereo not drawn) [Compound 47, 2-((1H-pyrrolo[2,3-b]pyridin-5-yl)oxy)-4-(4-(1-(cyclopent-1-en-1-yl)-6,7,8,9-tetrahydro-5H-benzo[7]annulen-5-yl)piperazin-1-yl)-N-((3-nitro-4-(((tetrahydro-2H-pyran-4-yl)methyl)amino)phenyl)sulfonyl)benzamide]: the IC50 was 20 to 200 nM at BCL-2 and > 2000 nM on BCL-XL. Besides, the GI50 in the test on DOHH2 cells is > 5000 nM.

In the case of `CP(C)(=O)c1cccc2c1CCCCC2N1CCN(c2ccc(C(=O)NS(=O)(=O)c3ccc(NCC4CCOCC4)c([N+](=O)[O-])c3)c(Oc3cnc4[nH]ccc4c3)c2)CC1` (stereo not drawn) [Compound 63, 2-((1H-pyrrolo[2,3-b]pyridin-5-yl)oxy)-4-(4-(1-(dimethylphosphoryl)-6,7,8,9-tetrahydro-5H-benzo[7]annulen-5-yl)piperazin-1-yl)-N-((3-nitro-4-(((tetrahydro-2H-pyran-4-yl)methyl)amino)phenyl)sulfonyl)benzamide], the IC50 at BCL-2 was 20 to 200 nM; at BCL-XL, > 2000 nM. Also, the GI50 with DOHH2 cells was > 5000 nM.

As for `CN1CCC(CNc2ccc(S(=O)(=O)NC(=O)c3ccc(N4CCN(C5CCCCc6c(Cl)cccc65)CC4)cc3Oc3cnc4[nH]ccc4c3)cc2[N+](=O)[O-])CC1` (stereo not drawn) [Compound 29, 2-((1H-pyrrolo[2,3-b]pyridin-5-yl)oxy)-4-(4-(1-chloro-6,7,8,9-tetrahydro-5H-benzo[7]annulen-5-yl)piperazin-1-yl)-N-((4-(((1-methylpiperidin-4-yl)methyl)amino)-3-nitrophenyl)sulfonyl)benzamide], the IC50 at BCL-2 and on BCL-XL was < 20 nM throughout. The GI50 in the test with DOHH2 cells is < 50 nM.

Turning to `O=C(NS(=O)(=O)c1ccc(NCC2CCC3(CC2)COC3)c([N+](=O)[O-])c1)c1ccc(N2CCN([C@@H]3CCCCc4c3cccc4[N+](=O)[O-])CC2)cc1Oc1cnc2[nH]ccc2c1` [Compound 74, (R)-2-((1H-pyrrolo[2,3-b]pyridin-5-yl)oxy)-N-((4-(((2-oxaspiro[3.5]nonan-7-yl)methyl)amino)-3-nitrophenyl)sulfonyl)-4-(4-(1-nitro-6,7,8,9-tetrahydro-5H-benzo[7]annulen-5-yl)piperazin-1-yl)benzamide], the figures for the IC50 at BCL-2 and on BCL-XL were < 20 nM and 20 to 200 nM, respectively. In addition, the GI50 in the test on DOHH2 cells is < 50 nM.

`C=C(C)c1cccc2c1CCCCC2N1CCN(c2ccc(C(=O)NS(=O)(=O)c3ccc(NCC4CCOCC4)c([N+](=O)[O-])c3)c(Oc3cnc4[nH]ccc4c3)c2)CC1` (stereo not drawn) [Compound 50, 2-((1H-pyrrolo[2,3-b]pyridin-5-yl)oxy)-N-((3-nitro-4-(((tetrahydro-2H-pyran-4-yl)methyl)amino)phenyl)sulfonyl)-4-(4-(1-(prop-1-en-2-yl)-6,7,8,9-tetrahydro-5H-benzo[7]annulen-5-yl)piperazin-1-yl)benzamide]: the IC50 at BCL-2 is < 20 nM; at BCL-XL, 200 to 2000 nM. The same molecule yielded a GI50 in the test on DOHH2 cells of 50 to 500 nM.

In the case of `O=C(NS(=O)(=O)c1ccc(NCC2(O)CCN(C3COC3)CC2)c([N+](=O)[O-])c1)c1ccc(N2CCN([C@@H]3CCCCc4c(Cl)cc(F)cc43)CC2)cc1Oc1cnc2[nH]ccc2c1` [Compound 88, (R)-2-((1H-pyrrolo[2,3-b]pyridin-5-yl)oxy)-4-(4-(1-chloro-3-fluoro-6,7,8,9-tetrahydro-5H-benzo[7]annulen-5-yl)piperazin-1-yl)-N-((4-(((4-hydroxy-1-(oxetan-3-yl)piperidin-4-yl)methyl)amino)-3-nitrophenyl)sulfonyl)benzamide], the IC50 at BCL-2 and on BCL-XL was < 20 nM in each case. For the same molecule, the GI50 in the test on DOHH2 cells was < 50 nM.

With `CN1CC2CC1CN2CCNc1ccc(S(=O)(=O)NC(=O)c2ccc(N3CCN(C4CCCCc5c(Cl)cccc54)CC3)cc2Oc2cnc3[nH]ccc3c2)cc1[N+](=O)[O-]` (stereo not drawn) [Compound 43, 2-((1H-pyrrolo[2,3-b]pyridin-5-yl)oxy)-4-(4-(1-chloro-6,7,8,9-tetrahydro-5H-benzo[7]annulen-5-yl)piperazin-1-yl)-N-((4-((2-(5-methyl-2,5-diazabicyclo[2.2.1]heptan-2-yl)ethyl)amino)-3-nitrophenyl)sulfonyl)benzamide], the IC50 at BCL-2 and at BCL-XL was < 20 nM in each case. In the test on DOHH2 cells, the GI50 fell in the range of 50 to 500 nM.

Turning to `CC(CO)c1cccc2c1CCCCC2N1CCN(c2ccc(C(=O)NS(=O)(=O)c3ccc(NCC4CCOCC4)c([N+](=O)[O-])c3)c(Oc3cnc4[nH]ccc4c3)c2)CC1` (stereo not drawn) [Compound 61, 2-((1H-pyrrolo[2,3-b]pyridin-5-yl)oxy)-4-(4-(1-(1-hydroxypropan-2-yl)-6,7,8,9-tetrahydro-5H-benzo[7]annulen-5-yl)piperazin-1-yl)-N-((3-nitro-4-(((tetrahydro-2H-pyran-4-yl)methyl)amino)phenyl)sulfonyl)benzamide], the IC50 on BCL-2 was < 20 nM; on BCL-XL it was 200 to 2000 nM. Besides, the GI50 in the test with DOHH2 cells is 500 to 5000 nM.

Consider `O=C(NS(=O)(=O)c1ccc(NC[C@H]2CO[C@H]3OCC[C@@H]23)c([N+](=O)[O-])c1)c1ccc(N2CCN([C@@H]3CCCCc4c(Br)cc(F)cc43)CC2)cc1Oc1cnc2[nH]ccc2c1` (relative stereo) [Compound 82, 2-((1H-pyrrolo[2,3-b]pyridin-5-yl)oxy)-4-(4-((R)-1-bromo-3-fluoro-6,7,8,9-tetrahydro-5H-benzo[7]annulen-5-yl)piperazin-1-yl)-N-((4-((((3S,3aS,6aR)-hexahydrofuro[2,3-b]furan-3-yl)methyl)amino)-3-nitrophenyl)sulfonyl)benzamide], for which the results for the IC50 on BCL-2 and at BCL-XL were < 20 nM and 200 to 2000 nM, respectively. This molecule also registered a GI50 with DOHH2 cells of 500 to 5000 nM.
